Laboratory results reported in patent publication US20220081444A1, “6,7-DIHYDRO-4H-PYRAZOLO[1,5-A]PYRAZINE INDOLE-2-CARBOXAMIDES ACTIVE AGAINST THE HEPATITIS B VIRUS (HBV)” (AiCuris GmbH & Co. KG, priority 2018, published 2022).
Where a name gives a salt, the structure may show the parent alone.

System: HBV
Details: Hepatitis B virus, HePAD38, 144 h, read-out: Cell Activity (EC50)

COC(=O)N1CCC(C(=O)Nc2cc3n(n2)CCN(C(=O)c2cc4ccccc4[nH]2)C3)CC1 [Example 58, Methyl 4-{[5-(1H-indole-2-carbonyl)-4H,5H,6H,7H-pyrazolo[1,5-a]pyrazin-2-yl]carbamoyl}piperidine-1-carboxylate]
EC50: < 1 µM

CC(C)(CO)CNc1cc2n(n1)CCN(C(=O)c1cc3ccccc3[nH]1)C2 [Example 59, 3-{[5-(1H-indole-2-carbonyl)-4H,5H,6H,7H-pyrazolo[1,5-a]pyrazin-2-yl]amino}-2,2-dimethylpropan-1-ol]
EC50: < 1 µM

COC1(CNc2cc3n(n2)CCN(C(=O)c2cc4ccccc4[nH]2)C3)CCC1 [Example 60, 5-(1H-indole-2-carbonyl)-N-[(1-methoxycyclobutyl)methyl]-4H,5H,6H,7H-pyrazolo[1,5-a]pyrazin-2-amine]
EC50: < 1 µM

O=C(Nc1cc2n(n1)CCN(C(=O)c1cc3ccccc3[nH]1)C2)C1CCNC(C(F)(F)F)C1 (centres unmarked) [Example 61, N-[5-(1H-indole-2-carbonyl)-4H,5H,6H,7H-pyrazolo[1,5-a]pyrazin-2-yl]-2-(trifluoromethyl)piperidine-4-carboxamide]
EC50: < 1 µM

O=C(Nc1cc2n(n1)CCN(C(=O)c1cc3ccccc3[nH]1)C2)C1CCN(CCO)CC1 [Example 62, 1-(2-hydroxyethyl)-N-[5-(1H-indole-2-carbonyl)-4H,5H,6H,7H-pyrazolo[1,5-a]pyrazin-2-yl]piperidine-4-carboxamide]
EC50: 1 to 10 µM

O=C(Nc1cc2n(n1)CCN(C(=O)c1cc3ccccc3[nH]1)C2)C1CCN(CC(F)(F)F)CC1 [Example 63, N-[5-(1H-indole-2-carbonyl)-4H,5H,6H,7H-pyrazolo[1,5-a]pyrazin-2-yl]-1-(2,2,2-trifluoroethyl)piperidine-4-carboxamide]
EC50: < 1 µM

CS(=O)(=O)N1CCC(C(=O)Nc2cc3n(n2)CCN(C(=O)c2cc4ccccc4[nH]2)C3)CC1 [Example 64, N-[5-(1H-indole-2-carbonyl)-4H,5H,6H,7H-pyrazolo[1,5-a]pyrazin-2-yl]-1-methanesulfonylpiperidine-4-carboxamide]
EC50: < 1 µM

NC(=O)N1CCC(C(=O)Nc2cc3n(n2)CCN(C(=O)c2cc4ccccc4[nH]2)C3)CC1 [Example 65, N4-[5-(1H-indole-2-carbonyl)-4H,5H,6H,7H-pyrazolo[1,5-a]pyrazin-2-yl]piperidine-1,4-dicarboxamide]
EC50: < 1 µM

CC(=O)N1CC(C(=O)Nc2cc3n(n2)CCN(C(=O)c2cc4ccccc4[nH]2)C3)C1 [Example 66, 1-acetyl-N-[5-(1H-indole-2-carbonyl)-4H,5H,6H,7H-pyrazolo[1,5-a]pyrazin-2-yl]azetidine-3-carboxamide]
EC50: < 1 µM

CNC(=O)Nc1cc2n(n1)CCN(C(=O)c1cc3ccccc3[nH]1)C2 [Example 67, 1-[5-(1H-indole-2-carbonyl)-4H,5H,6H,7H-pyrazolo[1,5-a]pyrazin-2-yl]-3-methylurea]
EC50: < 1 µM

O=C(Nc1cc2n(n1)CCN(C(=O)c1cc3ccccc3[nH]1)C2)C1CCn2ccnc2C1 (centres unmarked) [Example 68, N-[5-(1H-indole-2-carbonyl)-4H,5H,6H,7H-pyrazolo[1,5-a]pyrazin-2-yl]-5H,6H,7H,8H-imidazo[1,2-a]pyridine-7-carboxamide]
EC50: < 1 µM

O=C(Nc1cc2n(n1)CCN(C(=O)c1cc3ccccc3[nH]1)C2)C1CCN(C2CCOCC2)CC1 [Example 69, N-[5-(1H-indole-2-carbonyl)-4H,5H,6H,7H-pyrazolo[1,5-a]pyrazin-2-yl]-1-(oxan-4-yl)piperidine-4-carboxamide]
EC50: < 1 µM

CN1CC(C(=O)Nc2cc3n(n2)CCN(C(=O)c2cc4ccccc4[nH]2)C3)C1 [Example 70, N-[5-(1H-indole-2-carbonyl)-4H,5H,6H,7H-pyrazolo[1,5-a]pyrazin-2-yl]-1-methylazetidine-3-carboxamide]
EC50: 1 to 10 µM

O=C(c1cc2ccccc2[nH]1)N1CCn2nc(NCC3(O)CCC3)cc2C1 [Example 71, 1-({[5-(1H-indole-2-carbonyl)-4H,5H,6H,7H-pyrazolo[1,5-a]pyrazin-2-yl]amino}methyl)cyclobutan-1-ol]
EC50: < 1 µM

CC(CO)CNc1cc2n(n1)CCN(C(=O)c1cc3ccccc3[nH]1)C2 (centres unmarked) [Example 72, 3-{[5-(1H-indole-2-carbonyl)-4H,5H,6H,7H-pyrazolo[1,5-a]pyrazin-2-yl]amino}-2-methylpropan-1-ol]
EC50: < 1 µM

O=C(Nc1cc2n(n1)CCN(C(=O)c1cc3ccccc3[nH]1)C2)C1CCNCC1(F)F (centres unmarked) [Example 73, 3,3-difluoro-N-[5-(1H-indole-2-carbonyl)-4H,5H,6H,7H-pyrazolo[1,5-a]pyrazin-2-yl]piperidine-4-carboxamide]
EC50: < 1 µM

O=C(Nc1cc2n(n1)CCN(C(=O)c1cc3ccccc3[nH]1)C2)C1CCN(C2CC2)CC1 [Example 74, 1-cyclopropyl-N-[5-(1H-indole-2-carbonyl)-4H,5H,6H,7H-pyrazolo[1,5-a]pyrazin-2-yl]piperidine-4-carboxamide]
EC50: < 1 µM

CC1(CNc2cc3n(n2)CCN(C(=O)c2cc4ccccc4[nH]2)C3)CCOC1 (centres unmarked) [Example 75, 5-(1H-indole-2-carbonyl)-N-[(3-methyloxolan-3-yl)methyl]-4H,5H,6H,7H-pyrazolo[1,5-a]pyrazin-2-amine]
EC50: < 1 µM

O=C(c1cc2ccccc2[nH]1)N1CCn2nc(N[C@H]3C[C@H](O)C3)cc2C1 [Example 76, (1r,3r)-3-{[5-(1H-indole-2-carbonyl)-4H,5H,6H,7H-pyrazolo[1,5-a]pyrazin-2-yl]amino}cyclobutan-1-ol]
EC50: < 1 µM

O=C(c1cc2ccccc2[nH]1)N1CCn2nc(N[C@H]3CCC[C@@H](O)C3)cc2C1 [Example 77, (1R,3S)-3-{[5-(1H-indole-2-carbonyl)-4H,5H,6H,7H-pyrazolo[1,5-a]pyrazin-2-yl]amino}cyclohexan-1-ol]
EC50: < 1 µM

CC(C)OC1(CNc2cc3n(n2)CCN(C(=O)c2cc4ccccc4[nH]2)C3)CCC1 [Example 78, 5-(1H-indole-2-carbonyl)-N-{[1-(propan-2-yloxy)cyclobutyl]methyl}-4H,5H,6H,7H-pyrazolo[1,5-a]pyrazin-2-amine]
EC50: < 1 µM

O=C(c1cc2ccccc2[nH]1)N1CCn2nc(NCC3(CO)CCC3)cc2C1 [Example 79, [1-({[5-(1H-indole-2-carbonyl)-4H,5H,6H,7H-pyrazolo[1,5-a]pyrazin-2-yl]amino}methyl)cyclobutyl]methanol]
EC50: < 1 µM

COC1CCC(Nc2cc3n(n2)CCN(C(=O)c2cc4ccccc4[nH]2)C3)CC1 (centres unmarked) [Example 80, 5-(1H-indole-2-carbonyl)-N-(4-methoxycyclohexyl)-4H,5H,6H,7H-pyrazolo[1,5-a]pyrazin-2-amine]
EC50: < 1 µM

CN1CCC(C(=O)Nc2cc3n(n2)CCN(C(=O)c2cc4ccccc4[nH]2)C3)CC1C(F)(F)F (centres unmarked) [Example 81, N-[5-(1H-indole-2-carbonyl)-4H,5H,6H,7H-pyrazolo[1,5-a]pyrazin-2-yl]-1-methyl-2-(trifluoromethyl)piperidine-4-carboxamide]
EC50: < 1 µM

O=C(c1cc2ccccc2[nH]1)N1CCn2nc(NCC3(O)CC(F)(F)C3)cc2C1 [Example 83, 3,3-difluoro-1-({[5-(1H-indole-2-carbonyl)-4H,5H,6H,7H-pyrazolo[1,5-a]pyrazin-2-yl]amino}methyl)cyclobutan-1-ol]
EC50: < 1 µM

O=C(c1cc2ccccc2[nH]1)N1CCn2nc(NC3(c4ccccc4)CC3)cc2C1 [Example 84, 5-(1H-indole-2-carbonyl)-N-(1-phenylcyclopropyl)-4H,5H,6H,7H-pyrazolo[1,5-a]pyrazin-2-amine]
EC50: < 1 µM

O=C(Nc1cc2n(n1)CCN(C(=O)c1cc3ccccc3[nH]1)C2)C1CCNCC1F (centres unmarked) [Example 85, 3-fluoro-N-[5-(1H-indole-2-carbonyl)-4H,5H,6H,7H-pyrazolo[1,5-a]pyrazin-2-yl]piperidine-4-carboxamide Trihydrochloride]
EC50: < 1 µM

CN1CCC(C(=O)Nc2cc3n(n2)CCN(C(=O)c2cc4ccccc4[nH]2)C3)C(F)(F)C1 (centres unmarked) [Example 87, 3,3-difluoro-N-[5-(1H-indole-2-carbonyl)-4H,5H,6H,7H-pyrazolo[1,5-a]pyrazin-2-yl]-1-methylpiperidine-4-carboxamide]
EC50: < 1 µM

CN1CCC(C(=O)Nc2cc3n(n2)CCN(C(=O)c2cc4ccccc4[nH]2)C3)C(F)C1 (centres unmarked) [Example 88, 3-fluoro-N-[5-(1H-indole-2-carbonyl)-4H,5H,6H,7H-pyrazolo[1,5-a]pyrazin-2-yl]-1-methylpiperidine-4-carboxamide]
EC50: < 1 µM

CN1CC[C@H](C(=O)Nc2cc3n(n2)CCN(C(=O)c2cc4ccccc4[nH]2)C3)[C@@H](F)C1 [Example 89, (3R,4R)-3-fluoro-N-[5-(1H-indole-2-carbonyl)-4H,5H,6H,7H-pyrazolo[1,5-a]pyrazin-2-yl]-1-methylpiperidine-4-carboxamide]
EC50: < 1 µM

O=C(c1cc2ccccc2[nH]1)N1CCn2nc(NC3(CO)CCC3)cc2C1 [Example 90, (1-{[5-(1H-indole-2-carbonyl)-4H,5H,6H,7H-pyrazolo[1,5-a]pyrazin-2-yl]amino}cyclobutyl)methanol]
EC50: < 1 µM

O=C(c1cc2ccccc2[nH]1)N1CCn2nc(N[C@H]3C[C@@H](O)C3)cc2C1 [Example 91, (1s,3s)-3-{[5-(1H-indole-2-carbonyl)-4H,5H,6H,7H-pyrazolo[1,5-a]pyrazin-2-yl]amino}cyclobutan-1-ol]
EC50: < 1 µM

O=C(c1cc2ccccc2[nH]1)N1CCn2nc(NC3(CO)CC3)cc2C1 [Example 92, (1-{[5-(1H-indole-2-carbonyl)-4H,5H,6H,7H-pyrazolo[1,5-a]pyrazin-2-yl]amino}cyclopropyl)methanol]
EC50: < 1 µM

CCc1cccc2[nH]c(C(=O)N3CCn4nc(NCC5(O)CCC5)cc4C3)cc12 [Example 93, 1-({[5-(4-ethyl-1H-indole-2-carbonyl)-4H,5H,6H,7H-pyrazolo[1,5-a]pyrazin-2-yl]amino}methyl)cyclobutan-1-ol]
EC50: < 1 µM

COC1(CNc2cc3n(n2)CCN(C(=O)c2cc4ccccc4[nH]2)C3)CCOC1 (centres unmarked) [Example 94, 5-(1H-indole-2-carbonyl)-N-[(3-methoxyoxolan-3-yl)methyl]-4H,5H,6H,7H-pyrazolo[1,5-a]pyrazin-2-amine]
EC50: < 1 µM
